The target of this test is T1, autophosphorylation of PASK at position Thr307 in Hek293 cells overexpressing PASK (Homo sapiens, UniProt Q96RG2).
T1 construct: expressed in transfected cells; host or cells: Hek293
As to the kind of experiment: PASK autophosphorylation ELISA assay. The settings on record: 24 h, ELISA readout. Type of test: cell-based. In short, it runs like this: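 Hek293 cells transiently transfected with full-length wild-type PASK-FLAG, treated 24 h in serum-free DMEM with an 8-point 1/3 dilution series from 30 μM final (0.3% DMSO). Lysates captured on anti-FLAG ELISA plates, Thr307 phosphorylation detected with phospho-Akt substrate (RXXS*/T*) antibody and HRP chemiluminescence; IC50 from percentage inhibition curves.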

Molecules are shown by their SMILES.

T1 sequence (Q96RG2 with tags, fused parts or gaps): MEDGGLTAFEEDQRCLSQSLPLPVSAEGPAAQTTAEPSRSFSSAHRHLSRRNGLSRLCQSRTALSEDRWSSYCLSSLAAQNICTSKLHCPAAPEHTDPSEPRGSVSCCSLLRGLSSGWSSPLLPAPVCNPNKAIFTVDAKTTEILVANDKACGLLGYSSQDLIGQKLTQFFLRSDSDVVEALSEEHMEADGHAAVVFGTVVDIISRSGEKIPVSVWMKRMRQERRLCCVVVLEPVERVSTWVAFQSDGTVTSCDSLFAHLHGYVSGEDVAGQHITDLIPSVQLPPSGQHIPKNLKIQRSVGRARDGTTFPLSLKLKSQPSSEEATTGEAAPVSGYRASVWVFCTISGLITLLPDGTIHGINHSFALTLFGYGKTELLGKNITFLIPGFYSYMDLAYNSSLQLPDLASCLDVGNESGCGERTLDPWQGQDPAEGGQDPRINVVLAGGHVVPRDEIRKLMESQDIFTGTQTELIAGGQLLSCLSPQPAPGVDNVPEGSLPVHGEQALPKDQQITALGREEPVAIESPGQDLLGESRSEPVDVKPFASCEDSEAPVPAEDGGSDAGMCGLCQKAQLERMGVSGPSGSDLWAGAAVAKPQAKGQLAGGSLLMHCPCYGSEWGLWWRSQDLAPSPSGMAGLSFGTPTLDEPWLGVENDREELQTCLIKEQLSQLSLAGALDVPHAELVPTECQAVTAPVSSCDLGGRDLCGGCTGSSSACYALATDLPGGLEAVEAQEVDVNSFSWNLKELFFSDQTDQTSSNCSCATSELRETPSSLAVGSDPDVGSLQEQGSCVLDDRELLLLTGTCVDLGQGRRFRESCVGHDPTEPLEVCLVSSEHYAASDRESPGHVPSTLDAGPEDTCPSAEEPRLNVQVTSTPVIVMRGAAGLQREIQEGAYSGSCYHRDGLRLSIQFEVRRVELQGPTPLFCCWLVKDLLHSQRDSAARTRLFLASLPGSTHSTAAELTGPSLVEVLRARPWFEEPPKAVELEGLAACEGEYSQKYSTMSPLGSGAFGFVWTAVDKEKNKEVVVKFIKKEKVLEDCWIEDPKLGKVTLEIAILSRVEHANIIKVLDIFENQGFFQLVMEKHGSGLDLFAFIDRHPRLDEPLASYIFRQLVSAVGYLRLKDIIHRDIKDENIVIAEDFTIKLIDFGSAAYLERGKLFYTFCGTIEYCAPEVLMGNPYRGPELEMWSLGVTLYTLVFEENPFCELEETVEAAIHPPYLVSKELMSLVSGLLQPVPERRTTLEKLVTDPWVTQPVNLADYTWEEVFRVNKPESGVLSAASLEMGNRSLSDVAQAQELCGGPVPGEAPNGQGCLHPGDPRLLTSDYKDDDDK

On to `Cc1nn(C(C)C)c(C)c1-c1cnn2ccc(-c3cc(C(=O)O)co3)cc12` [Cpd 18, 5-[3-(1-isopropyl-3,5-dimethyl-pyrazol-4-yl)pyrazolo[1,5-a]pyridin-5-yl]furan-3-carboxylic acid], for which the IC50 (in general, the point on the concentration scale where inhibition reaches its midpoint) is 500 to 1000 nM.

These data come from US20220144823A1, “PYRAZOLOPYRIDINE DERIVATIVES AS INHIBITORS OF PASK” (Galapagos NV, priority 2019, published 2022).
